Literature values as cited in Sander's compilation of Henry's law constants (doi:10.1002/cite.330370802).

What was measured:
Conditions in all cases: reference: Irmann (1965); cited value
[1] = Henry solubility constant Hcp at 298.15 K (mol/(m3 Pa))
[2] = Henry solubility constant Hcp at 293 K (mol/(m3 Pa))
[3] = Henry solubility constant Hcp at 294 K (mol/(m3 Pa))
[4] = Henry solubility constant Hcp at 303 K (mol/(m3 Pa))

SMILES | Henry solubility constant Hcp [1] | other results
FC(F)F [trifluoromethane] | 0.0001 | 
FC(F)(Cl)C(F)(F)Cl [1,2-dichlorotetrafluoroethane] |  | Henry solubility constant Hcp at 293 K [2]: 8.1e-06
FC(F)(F)F [tetrafluoromethane] | 1.9e-06 | 
FC(F)(F)Br [bromotrifluoromethane] | 2e-05 | 
C=CC=C [1,3-butadiene] | 0.00015 | 
FC(F)(Cl)Cl [dichlorodifluoromethane] | 2.3e-05 | 
CCCl [chloroethane] | 0.00063 | 
FC(F)(F)Cl [chlorotrifluoromethane] | 5.7e-06 | 
FC(F)(F)C(F)(F)Cl [chloropentafluoroethane] | 3.2e-06 | 
CC(F)(F)Cl [1-chloro-1,1-difluoroethane] |  | Henry solubility constant Hcp at 294 K [3]: 0.00019
CC(F)F [1,1-difluoroethane] |  | Henry solubility constant Hcp at 294 K [3]: 0.00048
FC(F)(F)CCl [2-chloro-1,1,1-trifluoroethane] | 0.00037 | 
FC(F)=C(F)F [tetrafluoroethene] |  | Henry solubility constant Hcp at 303 K [4]: 9.8e-06
FC(F)(F)C(F)(Cl)Cl [1,1-dichlorotetrafluoroethane] |  | Henry solubility constant Hcp at 294 K [3]: 5.8e-06
